For orientation: IC50 means the concentration that gives 50% inhibition.

Peptide text beside a SMILES is read from it. * marks the point of attachment. Boc = CC(C)(C)OC(=O)*; OBn = c1ccc(CO*)cc1; Bn = c1ccc(C*)cc1

The assay concerns the target Beta-secretase 1 (Homo sapiens, UniProt P56817).

Beta-secretase 1, sequence (P56817 whole entry): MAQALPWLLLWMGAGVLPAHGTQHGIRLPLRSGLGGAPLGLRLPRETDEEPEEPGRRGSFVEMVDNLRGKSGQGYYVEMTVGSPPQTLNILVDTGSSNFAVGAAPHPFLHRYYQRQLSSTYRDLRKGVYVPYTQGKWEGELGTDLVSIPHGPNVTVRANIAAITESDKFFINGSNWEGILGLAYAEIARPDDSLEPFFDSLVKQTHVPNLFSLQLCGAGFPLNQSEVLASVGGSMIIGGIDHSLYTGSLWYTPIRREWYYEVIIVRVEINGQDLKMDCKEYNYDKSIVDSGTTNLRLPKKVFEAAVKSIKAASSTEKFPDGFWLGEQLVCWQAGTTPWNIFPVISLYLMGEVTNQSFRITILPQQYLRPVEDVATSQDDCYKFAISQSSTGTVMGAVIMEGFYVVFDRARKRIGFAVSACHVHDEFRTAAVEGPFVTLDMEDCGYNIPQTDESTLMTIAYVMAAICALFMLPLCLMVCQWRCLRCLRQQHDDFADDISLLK
Description: Inhibition of BACE1 after 2 hrs by FRET assay

With `CC(C)(C)OC(=O)NC(CC(=O)OCc1ccccc1)C(=O)NC(COCc1ccccc1)C(=O)NCC(=O)OCc1ccccc1` (stereo unspecified) (Boc-Asp(OBn)-Ser(Bn)-Gly-OBn; configuration not given here), half-maximal inhibition (IC50) was put at 100 µM.

`C[C@@H](NC(=O)c1cc(C(=O)N[C@@H](Cc2ccccc2)[C@H](O)CNC2CC2)cc(N(C)S(C)(=O)=O)c1)c1ccc(F)cc1` gave an IC50 of 10 µM.

Regarding `O=C(O)c1cc(-c2ccc(/C=N/Nc3nc(Nc4ccc(F)cc4)nc(N4CCOCC4)n3)o2)ccc1Cl`, 7.1 µM corresponded to half-maximal inhibition (IC50).

Regarding `C=CCn1c(SCC(=O)Nc2ccc(S(N)(=O)=O)cc2)nc2sc3c(c2c1=O)CCCC3`, half-maximal inhibition (IC50) required 100 µM.

Compound `FC(F)(Cl)Oc1ccc(Nc2nc(NCc3ccccc3)nc(N3CCCCC3)n2)cc1` came in with an IC50 of 100 µM.

Regarding `CCOc1cc(C2C(C(=O)OCc3ccccc3)=C(C)NC3=C2C(=O)CC(C)(C)C3)cc(Br)c1O` (stereo unspecified), the IC50 was found to be 100 µM.

In turn, `NNC(=O)CN1C(CN2CCOCC2)=Nc2ccc(Br)cc2C1c1ccccc1` (stereo unspecified) had an IC50 of 100 µM.

The compound `Cc1ccc(Nc2nc(N/N=C/c3ccc(Cl)c(Cl)c3)nc(N3CCOCC3)n2)c(Cl)c1` gave an IC50 of 100 µM.

As to `Oc1c(I)cc(I)cc1/C=N/Nc1nc(Nc2cccc3ccccc23)nc(N2CCOCC2)n1`, the 50% inhibitory concentration (IC50) came out at 100 µM.

The compound `C=CN(C=C)C(=O)c1cc(OCC(=O)NCCCCCN)cc(C(=O)N[C@H](C)c2ccccc2)c1` showed a half-inhibitory concentration (IC50) of 25 µM.

In turn, `Cc1c(CC(=O)N[C@H](CCCNC(N)=O)C(=O)O)c(=O)oc2cc(O)ccc12` came in with an IC50 of 500 µM.

Take `O=C(O)CC(NNc1nc(NCCO)nc(N2CCOCC2)n1)c1ccccc1` (stereo unspecified): the IC50 was 500 µM.

Turning to `CCN1CCCC1CNC(=O)c1ccc2c(=O)n(Cc3cccc(Br)c3)c(=S)[nH]c2c1` (stereo unspecified), the IC50 came out at 100 µM.

`Cc1c(CC(=O)N[C@H](CCCNC(N)=O)C(=O)O)c(=O)oc2c(C)c(O)ccc12` came in with an IC50 of 500 µM.

For `O=C(NCc1ccccc1Cl)c1ccc(N2CC3CC(C2)c2cccc(=O)n2C3)c(NS(=O)(=O)c2ccc3c(c2)OCCO3)c1` (stereo unspecified), the IC50 was determined as 100 µM.

Compound `CN(C)CCNC(=O)c1c[nH]c2ccc(S(=O)(=O)N3CCc4ccccc4C3)cc2c1=O` gave an IC50 of 100 µM.

`O=C(Nc1ccccc1C(=O)NCC(O)CNC(=O)c1ccccc1NC(=O)c1ccccc1)c1ccccc1` came in with an IC50 of 100 µM.

`O=C(Nc1cc(Br)ccc1N1CCOCC1)c1cccc2ccccc12`: the IC50 was 20 µM.

`O=C(NCc1ccc(Cl)cc1)c1ccc(N2CC3CC(C2)c2cccc(=O)n2C3)c(NS(=O)(=O)c2ccc3c(c2)OCCO3)c1` (stereo unspecified) gave an IC50 of 100 µM.

As for `CCc1ccc(N2C(=O)Nc3ccc(Br)cc3C2(O)C(=O)NCC(C)CN2CCC(C)CC2)cc1` (stereo unspecified), it took 100 µM to reach half-maximal inhibition (IC50).

Turning to `Cc1ccc(Nc2nc(CN3CCOCC3)nc(N/N=C/c3cc(Br)cc(Br)c3O)n2)cc1`, the half-maximal inhibitory concentration (IC50) came out at 48.1 µM.

For `CCCCc1ccc(Nc2nc3ccccc3nc2NS(=O)(=O)c2ccc(Cl)cc2)cc1`, inhibition was half-maximal at 100 µM (IC50).

The compound `Cc1cc(C)nc(NS(=O)(=O)c2ccc(Nc3nc(-c4ccc(C(C)C)cc4)cs3)cc2)n1` returned an IC50 of 1000 µM.

The compound `COc1ccc(-n2nc(C(=O)NCC(=O)Nc3cccc(C)n3)c3ccccc3c2=O)cc1Cl` yielded an IC50 of 100 µM.

Compound `Oc1c(I)cc(I)cc1/C=N/Nc1nc(NCc2ccccc2)nc(N2CCOCC2)n1` showed an IC50 of 100 µM.

Compound `Cc1ccc(C)c(Nc2nc(N/N=C/c3cc(Br)c(O)c(Br)c3C)nc(N3CCOCC3)n2)c1` came in with an IC50 of 81.8 µM.

Compound `O=C(NCc1ccccc1)c1ccc(N2CC3CC(C2)c2cccc(=O)n2C3)c(NS(=O)(=O)c2ccc3c(c2)OCCO3)c1` (stereo unspecified) returned an IC50 of 100 µM.

In the case of `C[C@@H](NC(=O)c1cc(C(=O)N[C@@H](Cc2ccccc2)[C@H](O)CNC2CC2)cc(N(C)S(=O)(=O)N(C)C)c1)c1ccccc1`, the midpoint of inhibition, the IC50, lay at 14 µM.

The compound `O=C(Nc1cc(Br)ccc1N1CCOCC1)c1cc2ccccc2oc1=O` gave an IC50 of 10 µM.

On to `Cc1cc(Br)c(Nc2nc(CN3CCOCC3)nc(N/N=C/c3cc(I)cc(C)c3O)n2)cc1Cl`, for which the IC50 was found to be 100 µM.

In turn, `O=C1CSC(c2ccc(Cl)cc2)N1Nc1nc(Nc2ccccc2)nc(N2CCCCC2)n1` (stereo unspecified) returned an IC50 of 100 µM.

Consider `CCN1CCCC1CNC(=O)c1ccc2c(=O)n(Cc3ccc(Cl)cc3)c(=S)[nH]c2c1` (stereo unspecified), for which it took 100 µM to reach half-maximal inhibition (IC50).

The compound `O=C(Nc1ccc(Cl)c(C(F)(F)F)c1)C(NS(=O)(=O)c1cccs1)c1ccccc1` (stereo unspecified) registered an IC50 of 100 µM.

`COc1cc(/C=N/Nc2nc(Nc3ccccc3)nc(N3CCOCC3)n2)cc(Br)c1O` returned an IC50 of 100 µM.

With `C[C@@H](NC(=O)c1cc(NS(C)(=O)=O)cc(C(=O)N[C@@H](Cc2ccccc2)[C@H](O)CNC2CC2)c1)c1ccc(F)cc1`, the IC50 was 63 µM.

Take `CCOC(=O)C(Cc1ccc(O)cc1)NS(=O)(=O)c1ccc2c(c1)C(=O)c1ccccc1C2=O` (stereo unspecified): inhibition was half-maximal at 100 µM (IC50).

Turning to `CC(C)(C)OC(=O)N1CCN(c2ccc(Br)cc2NC(=O)c2cccc3ccccc23)CC1`, half-maximal inhibition (IC50) was put at 1 µM.

As for `CCOc1cc(/C=N\NC(=O)COc2ccc(C)cc2)cc(I)c1O`, the IC50 worked out at 100 µM.

In turn, `O=C(O)CCCNC(=O)CCCCC(=O)C(c1ccccc1)c1ccccc1` showed an IC50 of 500 µM.

The compound `O=C(NCCc1ccc(Cl)cc1)C1CCC(CNc2nc(=S)[nH]c3ccccc23)CC1` (stereo unspecified) gave an IC50 of 100 µM.

In turn, `CC(C)S(=O)(=O)N(C)c1cc(C(=O)N[C@@H](Cc2ccccc2)[C@H](O)CNC2CC2)cc(C(=O)N[C@H](C)c2ccccc2)c1` returned an IC50 of 41 µM.

Compound `O=C(NCc1ccccc1)c1c[nH]c2ccc(S(=O)(=O)NC3CCCCNC3=O)cc2c1=O` (stereo unspecified) gave an IC50 of 100 µM.

In turn, `Cc1cc(O)c2c(C)c(CC(=O)N[C@H](CCCNC(N)=O)C(=O)O)c(=O)oc2c1` registered an IC50 of 500 µM.

In turn, `CSc1ccc(C(O)C(CO)NC(=O)c2cc3c(n(-c4ccc(Cl)cc4)c2=O)CC(C)(C)CC3=O)cc1` (stereo unspecified) displayed an IC50 of 100 µM.

`CC(NC(=O)NCCNC(=O)NC(C)C(=O)O)C(=O)O` (stereo unspecified) gave a 50% inhibitory concentration (IC50) of 500 µM.

The compound `Cc1oc(-c2ccccc2)cc1C(=O)NCC(=O)NC(C(=O)O)C(C)C` (stereo unspecified) displayed an IC50 of 500 µM.

As for `COc1cc(/C=N\NC(=O)c2ccccc2OCCOc2ccccc2)cc(Br)c1O`, 500 µM corresponded to half-maximal inhibition (IC50).

Regarding `O=C(CC1Sc2ccccc2NC1=O)Nc1ccccc1SC(F)(F)C(F)(F)C(F)(F)F` (stereo unspecified), the midpoint of inhibition, the IC50, lay at 100 µM.

Turning to `CCCc1cc(=O)oc2c(C)c(OCC(=O)NCC(=O)NCC(=O)O)ccc12`, 100 µM corresponded to half-maximal inhibition (IC50).

`O=C(Nc1cc(Br)ccc1N1CCN(Cc2ccccc2)CC1)c1cccc2ccccc12`: the IC50 worked out at 5 µM.

On to `O=C(O)c1cc(-c2ccc(/C=N/Nc3nc(Nc4ccccc4)nc(N4CCCCC4)n3)o2)ccc1Cl`, for which the IC50 is 152 µM.

With `CCSc1scc(CC)c1C1C(C(=O)Nc2ccc(Br)cn2)=C(C)NC2=C1C(=O)CC(C)(C)C2` (stereo unspecified), the IC50 turned out to be 100 µM.

For `CC(=O)Nc1cc(C(=O)NCc2cc(F)cc(Cl)c2)ccc1Sc1ccc(Cl)cc1`, the IC50 was determined as 100 µM.

As for `COc1cccc2cc(C(=O)Nc3cc(Br)ccc3N3CCOCC3)c(=O)oc12`, the IC50 was 10 µM.

For the compound `CCc1ccc(Sc2c(N)c3c(c(N)c2Sc2ccc(CC)cc2)C(=O)c2ccccc2C3=O)cc1`, half-maximal inhibition (IC50) was put at 253 µM.

On to `O=C(CN1CCN(Cc2ccccc2)CC1)N/N=C\c1cc(I)cc(I)c1O`, for which the half-inhibitory concentration (IC50) stood at 100 µM.

For `COc1cc(/C=N/Nc2nc(Nc3ccc(F)cc3)nc(N3CCCCC3)n2)ccc1OCC(=O)O`, the IC50 amounted to 100 µM.

Compound `Clc1nc(NCCN2CCOCC2)nc(NCc2ccc(I)cc2)n1` returned an IC50 of 100 µM.

`CCOc1nc(NCCN2CCOCC2)nc(NNc2ccc(I)cc2C)n1` came in with an IC50 of 11.9 µM.

Compound `Cc1ccc(C)c(Nc2nc(N/N=C/c3cc(Br)cc(Br)c3O)nc(N3CCOCC3)n2)c1` came in with an IC50 of 100 µM.

Compound `CCCCCCc1nc2ccccc2c(=O)n1NC(O)c1c(O)c2cccc3c2n(c1=O)CCC3` (stereo unspecified) gave an IC50 of 100 µM.

The compound `Cc1ccc(CNC(=O)c2ccc(N3CC4CC(C3)c3cccc(=O)n3C4)c(NS(=O)(=O)c3ccc4c(c3)OCCO4)c2)cc1` (stereo unspecified) showed an IC50 of 100 µM.

As for `Oc1ccc(-c2ccccc2)cc1CN1CCN(Cc2cc(-c3ccccc3)ccc2O)CC1`, the 50% inhibitory concentration (IC50) amounted to 100 µM.

On to `C[C@@H](NC(=O)c1cc(C(=O)N[C@@H](Cc2ccccc2)[C@H](O)CN)cc(N(C)S(C)(=O)=O)c1)c1ccc(F)cc1`, for which the IC50 was found to be 23 µM.

`O=C(O)c1cc(-c2ccc(/C=N/Nc3nc(Nc4ccc(F)cc4)nc(N4CCCCC4)n3)o2)ccc1O` showed an IC50 of 27.9 µM.

As to `CCCc1cc(=O)oc2cc(OCC(=O)NCC(=O)NCC(=O)O)ccc12`, the IC50 came out at 500 µM.

`CC1CCCCN1CCNC(=O)c1cc(=O)[nH]c2ccc(S(=O)(=O)N3CCOCC3)cc12` (stereo unspecified) yielded an IC50 of 100 µM.

For the compound `O=C(NCc1ccc(F)cc1)c1ccc(N2CC3CC(C2)c2cccc(=O)n2C3)c(NS(=O)(=O)c2ccc3c(c2)OCCO3)c1` (stereo unspecified), the half-inhibitory concentration (IC50) stood at 100 µM.

Consider `O=C(NCCc1ccccc1)c1c[nH]c2ccc(S(=O)(=O)N3CCc4ccccc4C3)cc2c1=O`, for which the midpoint of inhibition, the IC50, lay at 100 µM.

On to `O=C(NCCc1ccc(Cl)cc1)c1ccc(Cn2c(=S)[nH]c3ccc(N4CCOCC4)cc3c2=O)cc1`, for which the IC50 turned out to be 100 µM.

Consider `COc1nc(NCCN2CCOCC2)nc(Nc2ccc(I)cc2)n1`, for which the IC50 came out at 100 µM.

In turn, `CCSc1sc(CC)cc1C1C(C(=O)Nc2ccc(C)cn2)=C(C)NC2=C1C(=O)CC(C)(C)C2` (stereo unspecified) yielded an IC50 of 100 µM.

`NS(=O)(=O)c1ccc(NC(=O)CSc2nnc(-c3ccccc3)c(-c3ccccc3)n2)cc1` registered an IC50 of 100 µM.

As to `O=C(Nc1ccc(Cl)cc1C(=O)c1ccccc1)c1ccc(Nc2nc(-c3ccccc3)c3cc(Br)ccc3n2)cc1`, the IC50 worked out at 100 µM.

With `Clc1ccc(/C=N/Nc2nc(NCc3ccc(Cl)cc3)nc(N3CCOCC3)n2)cc1`, the IC50 amounted to 100 µM.

The compound `CCc1cc(=O)oc2c(C)c(OC(=O)NCC(=O)NCC(=O)O)ccc12` registered an IC50 of 500 µM.

In turn, `CCN1CCN(CCNC(=O)c2ccc3c(=O)n(Cc4ccc(Cl)cc4)c(=S)[nH]c3c2)CC1` had an IC50 of 100 µM.

For the compound `COc1cccc2cc(C(=O)Nc3cc(Br)ccc3N3CCN(C(=O)OC(C)(C)C)CC3)c(=O)oc12`, the IC50 was 1 µM.

As to `Clc1ccc(/C=N/Nc2nc(Nc3ccccc3)nc(Nc3ccccc3)n2)cc1Cl`, it took 100 µM to reach half-maximal inhibition (IC50).

`COc1cccc2cc(C(=O)Nc3cc(Br)ccc3N3CCN(Cc4ccccc4)CC3)c(=O)oc12` had an IC50 of 5 µM.

In the case of `Clc1ccc(/C=N/Nc2nc(Nc3cccc(Br)c3)nc(N3CCOCC3)n2)cc1`, the IC50 turned out to be 100 µM.
